Read-outs that look alike come from different tables or passages of the source.
What was measured:
BRAF = molecular target: T1, BRAF (Homo sapiens, UniProt P15056); test: In vitro kinase assay (Z'-LYTE, Invitrogen); type: biochemical; details: compound at 100 nM, ATP Km apparent, read-out: % of inhibition of the kinase compared to the control
T1 construct: purchased Invitrogen
Method in brief: (§1)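 Z′-LYTE FRET assay: kinase phosphorylation protects the dual-labelled peptide from protease cleavage, read as donor/acceptor emission ratio. Conditions were ATP at apparent Km, 50 mM HEPES pH 7.5, 10 mM MgCl2, 1 mM EGTA, 0.01% BRIJ-35 and 1% DMSO, with compounds tested at 100 nM.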

EGFR (ErbB1) = molecular target: T2, EGFR (ErbB1) (Homo sapiens, UniProt P00533); test: In vitro kinase assay (Z'-LYTE, Invitrogen); type: biochemical; details: compound at 100 nM, ATP Km apparent, read-out: % of inhibition of the kinase compared to the control
T2 construct: purchased Invitrogen
T2 sequence (P00533 25-1210): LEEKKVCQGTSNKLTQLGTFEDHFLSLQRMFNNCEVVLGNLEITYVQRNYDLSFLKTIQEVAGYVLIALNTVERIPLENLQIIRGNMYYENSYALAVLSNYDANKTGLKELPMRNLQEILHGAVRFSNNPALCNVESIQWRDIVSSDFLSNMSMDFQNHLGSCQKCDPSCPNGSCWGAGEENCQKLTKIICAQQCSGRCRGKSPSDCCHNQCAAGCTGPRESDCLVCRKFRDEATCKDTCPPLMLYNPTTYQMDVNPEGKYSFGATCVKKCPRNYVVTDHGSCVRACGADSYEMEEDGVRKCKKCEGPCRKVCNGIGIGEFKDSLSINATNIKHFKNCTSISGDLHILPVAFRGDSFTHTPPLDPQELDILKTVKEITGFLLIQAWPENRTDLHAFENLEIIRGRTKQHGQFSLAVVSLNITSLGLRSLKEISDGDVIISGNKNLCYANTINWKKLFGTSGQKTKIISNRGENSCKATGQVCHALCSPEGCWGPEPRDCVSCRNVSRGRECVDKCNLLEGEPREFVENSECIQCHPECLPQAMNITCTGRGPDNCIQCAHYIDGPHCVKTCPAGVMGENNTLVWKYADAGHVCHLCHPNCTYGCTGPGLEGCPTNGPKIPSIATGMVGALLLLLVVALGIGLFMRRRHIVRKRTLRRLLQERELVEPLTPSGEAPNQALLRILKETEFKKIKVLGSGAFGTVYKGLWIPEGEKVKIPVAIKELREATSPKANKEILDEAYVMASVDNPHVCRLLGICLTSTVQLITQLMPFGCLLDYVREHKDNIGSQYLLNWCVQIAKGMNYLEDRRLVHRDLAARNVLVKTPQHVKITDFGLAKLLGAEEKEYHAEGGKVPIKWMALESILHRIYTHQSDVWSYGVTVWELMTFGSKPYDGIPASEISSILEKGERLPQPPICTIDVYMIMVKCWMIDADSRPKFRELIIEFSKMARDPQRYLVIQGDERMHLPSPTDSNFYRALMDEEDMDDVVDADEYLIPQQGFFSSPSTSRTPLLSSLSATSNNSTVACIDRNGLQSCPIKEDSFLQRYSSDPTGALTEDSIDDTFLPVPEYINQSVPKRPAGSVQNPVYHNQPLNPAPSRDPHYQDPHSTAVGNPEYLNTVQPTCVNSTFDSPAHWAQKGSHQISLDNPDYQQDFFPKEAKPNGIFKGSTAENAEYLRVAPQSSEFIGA
Method in brief: as §1

EGFR (ErbB1) T790M L858R = molecular target: T3, EGFR (ErbB1) T790M L858R (Homo sapiens, UniProt P00533, L858R/T790M); test: In vitro kinase assay (Z'-LYTE, Invitrogen); type: biochemical; details: compound at 100 nM, ATP Km apparent, read-out: % of inhibition of the kinase compared to the control
T3 construct: purchased Invitrogen
Method in brief: as §1

FGFR2 = molecular target: T4, FGFR2 (Homo sapiens, UniProt P21802); test: In vitro kinase assay (Z'-LYTE, Invitrogen); type: biochemical; details: compound at 100 nM, ATP Km apparent, read-out: % of inhibition of the kinase compared to the control
T4 construct: purchased Invitrogen
T4 sequence (P21802 22-821): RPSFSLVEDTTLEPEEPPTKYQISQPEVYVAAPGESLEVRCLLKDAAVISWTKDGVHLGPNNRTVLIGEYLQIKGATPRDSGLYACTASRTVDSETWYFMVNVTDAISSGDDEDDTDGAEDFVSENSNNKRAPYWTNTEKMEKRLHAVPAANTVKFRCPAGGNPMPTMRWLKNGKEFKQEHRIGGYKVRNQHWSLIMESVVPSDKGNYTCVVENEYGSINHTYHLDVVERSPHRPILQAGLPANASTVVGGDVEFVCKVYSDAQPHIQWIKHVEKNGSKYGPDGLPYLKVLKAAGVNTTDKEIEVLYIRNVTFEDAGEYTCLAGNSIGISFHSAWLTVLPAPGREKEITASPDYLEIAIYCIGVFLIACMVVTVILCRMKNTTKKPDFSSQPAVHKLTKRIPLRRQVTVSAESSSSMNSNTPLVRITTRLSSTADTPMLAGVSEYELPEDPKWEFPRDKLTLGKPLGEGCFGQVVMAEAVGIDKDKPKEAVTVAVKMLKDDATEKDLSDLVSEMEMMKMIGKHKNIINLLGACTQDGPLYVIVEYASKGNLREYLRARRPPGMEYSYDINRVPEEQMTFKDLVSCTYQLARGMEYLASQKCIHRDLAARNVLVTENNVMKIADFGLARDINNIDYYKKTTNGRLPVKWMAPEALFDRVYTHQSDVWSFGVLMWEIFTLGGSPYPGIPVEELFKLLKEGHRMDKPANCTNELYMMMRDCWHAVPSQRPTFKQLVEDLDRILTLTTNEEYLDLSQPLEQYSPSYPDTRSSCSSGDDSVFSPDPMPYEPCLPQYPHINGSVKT
Method in brief: as §1

KDR (VEGFR2) = molecular target: T5, KDR (VEGFR2) (Homo sapiens, UniProt P35968); test: In vitro kinase assay (Z'-LYTE, Invitrogen); type: biochemical; details: compound at 100 nM, ATP Km apparent, read-out: % of inhibition of the kinase compared to the control
T5 construct: purchased Invitrogen
T5 sequence (P35968 20-1356): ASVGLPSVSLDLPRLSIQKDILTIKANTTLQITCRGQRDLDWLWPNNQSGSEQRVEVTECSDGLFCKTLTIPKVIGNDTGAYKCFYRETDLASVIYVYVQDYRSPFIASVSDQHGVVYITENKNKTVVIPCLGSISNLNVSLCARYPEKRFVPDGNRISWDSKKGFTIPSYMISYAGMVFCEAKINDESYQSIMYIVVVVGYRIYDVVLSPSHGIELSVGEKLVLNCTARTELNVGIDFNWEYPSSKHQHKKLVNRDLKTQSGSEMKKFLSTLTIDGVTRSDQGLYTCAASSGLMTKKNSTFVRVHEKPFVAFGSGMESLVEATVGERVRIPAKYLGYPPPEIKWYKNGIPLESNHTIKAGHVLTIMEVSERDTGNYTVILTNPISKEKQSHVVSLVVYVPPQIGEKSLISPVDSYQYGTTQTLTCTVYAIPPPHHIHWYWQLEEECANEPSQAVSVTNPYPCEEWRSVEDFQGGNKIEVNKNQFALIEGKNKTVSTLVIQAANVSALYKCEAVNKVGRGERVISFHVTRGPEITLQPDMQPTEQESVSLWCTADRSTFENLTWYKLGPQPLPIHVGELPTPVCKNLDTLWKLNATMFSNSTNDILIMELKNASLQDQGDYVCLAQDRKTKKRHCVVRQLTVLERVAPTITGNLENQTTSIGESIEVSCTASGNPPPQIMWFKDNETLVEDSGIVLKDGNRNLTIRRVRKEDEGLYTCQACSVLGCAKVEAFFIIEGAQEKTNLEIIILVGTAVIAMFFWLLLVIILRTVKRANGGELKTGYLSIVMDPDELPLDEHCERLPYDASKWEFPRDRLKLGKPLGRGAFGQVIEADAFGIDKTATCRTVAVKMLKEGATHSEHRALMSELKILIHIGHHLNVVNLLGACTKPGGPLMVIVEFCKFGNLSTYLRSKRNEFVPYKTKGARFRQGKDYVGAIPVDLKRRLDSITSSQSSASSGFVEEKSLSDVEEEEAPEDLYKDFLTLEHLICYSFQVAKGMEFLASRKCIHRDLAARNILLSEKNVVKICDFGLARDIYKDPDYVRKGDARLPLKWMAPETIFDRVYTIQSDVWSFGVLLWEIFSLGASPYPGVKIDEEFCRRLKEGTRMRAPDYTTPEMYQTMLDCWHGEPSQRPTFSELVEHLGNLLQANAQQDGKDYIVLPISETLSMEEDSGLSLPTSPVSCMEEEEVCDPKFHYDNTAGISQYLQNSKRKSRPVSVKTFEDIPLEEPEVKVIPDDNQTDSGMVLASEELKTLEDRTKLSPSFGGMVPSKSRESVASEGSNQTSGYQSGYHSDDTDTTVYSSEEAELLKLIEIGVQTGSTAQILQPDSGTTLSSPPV
Method in brief: as §1

PDGFRA (PDGFR alpha) = molecular target: T6, PDGFRA (PDGFR alpha) (Homo sapiens, UniProt P16234); test: In vitro kinase assay (Z'-LYTE, Invitrogen); type: biochemical; details: compound at 100 nM, ATP Km apparent, read-out: % of inhibition of the kinase compared to the control
T6 construct: purchased Invitrogen
T6 sequence (P16234 24-1089): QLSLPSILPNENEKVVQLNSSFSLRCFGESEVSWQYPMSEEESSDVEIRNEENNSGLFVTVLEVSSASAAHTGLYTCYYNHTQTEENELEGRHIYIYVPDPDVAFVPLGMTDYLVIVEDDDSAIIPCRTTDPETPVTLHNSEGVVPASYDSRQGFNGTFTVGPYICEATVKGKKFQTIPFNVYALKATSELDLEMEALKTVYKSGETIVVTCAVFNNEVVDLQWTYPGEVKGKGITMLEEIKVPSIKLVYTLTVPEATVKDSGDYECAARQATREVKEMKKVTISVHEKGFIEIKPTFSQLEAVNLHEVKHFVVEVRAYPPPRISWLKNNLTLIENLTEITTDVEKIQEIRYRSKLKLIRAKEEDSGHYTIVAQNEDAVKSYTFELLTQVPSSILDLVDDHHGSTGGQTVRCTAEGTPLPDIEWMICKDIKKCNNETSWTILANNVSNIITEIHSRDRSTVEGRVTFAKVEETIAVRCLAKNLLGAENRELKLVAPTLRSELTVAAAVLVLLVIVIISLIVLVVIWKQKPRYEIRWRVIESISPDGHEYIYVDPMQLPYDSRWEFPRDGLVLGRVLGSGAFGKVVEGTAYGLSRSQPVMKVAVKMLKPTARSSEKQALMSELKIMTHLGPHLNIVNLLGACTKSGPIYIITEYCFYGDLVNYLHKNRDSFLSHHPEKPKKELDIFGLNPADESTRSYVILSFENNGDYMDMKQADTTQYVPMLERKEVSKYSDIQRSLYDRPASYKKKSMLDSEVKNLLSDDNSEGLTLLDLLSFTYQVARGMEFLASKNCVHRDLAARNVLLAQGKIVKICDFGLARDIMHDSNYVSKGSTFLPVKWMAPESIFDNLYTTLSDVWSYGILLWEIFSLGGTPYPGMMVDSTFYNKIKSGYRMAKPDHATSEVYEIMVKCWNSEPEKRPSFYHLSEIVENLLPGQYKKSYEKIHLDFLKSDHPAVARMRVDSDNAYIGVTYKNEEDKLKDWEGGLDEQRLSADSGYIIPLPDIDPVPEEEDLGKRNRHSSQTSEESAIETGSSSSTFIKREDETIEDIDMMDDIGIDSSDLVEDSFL
Method in brief: as §1

SRC = molecular target: T7, SRC (Homo sapiens, UniProt P12931); test: In vitro kinase assay (Z'-LYTE, Invitrogen); type: biochemical; details: compound at 100 nM, ATP Km apparent, read-out: % of inhibition of the kinase compared to the control
T7 construct: purchased Invitrogen
T7 sequence (P12931 whole entry): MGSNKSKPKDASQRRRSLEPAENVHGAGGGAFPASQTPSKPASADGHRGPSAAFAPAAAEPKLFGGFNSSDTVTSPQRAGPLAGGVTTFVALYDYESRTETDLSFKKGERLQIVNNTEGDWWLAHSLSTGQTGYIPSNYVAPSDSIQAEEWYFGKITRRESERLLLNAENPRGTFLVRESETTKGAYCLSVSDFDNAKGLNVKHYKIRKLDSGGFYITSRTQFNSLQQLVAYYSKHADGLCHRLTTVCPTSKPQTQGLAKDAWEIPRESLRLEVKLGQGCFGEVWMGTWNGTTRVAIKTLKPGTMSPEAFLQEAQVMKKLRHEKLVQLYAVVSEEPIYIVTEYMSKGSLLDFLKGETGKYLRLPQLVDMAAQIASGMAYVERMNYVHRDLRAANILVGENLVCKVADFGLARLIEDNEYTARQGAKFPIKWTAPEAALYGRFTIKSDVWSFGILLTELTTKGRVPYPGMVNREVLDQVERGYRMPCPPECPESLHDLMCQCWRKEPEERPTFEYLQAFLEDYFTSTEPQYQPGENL
Method in brief: as §1

HUVEC cells = test: In vitro cell proliferation assay (MTT); type: cell-based; details: Homo sapiens, 72 hr, read-out: EC50, anti-proliferative activity
Method in brief: (§2)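 Cancer cells were seeded at 5×10^3 per well and HRMEC at 1×10^4 per well, then exposed in duplicate to compound (10 nM to 3 μM) for 72 hr. Proliferation was read by MTT. EC50 came from sigmoidal dose-response fits normalized to DMSO (0%) and 1% SDS (100%) controls.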

HepG2 cell line = test: In vitro cell proliferation assay (MTT); type: cell-based; details: Homo sapiens, HepG2, 72 hr, read-out: EC50, anti-proliferative activity
Method in brief: as §2

HuCCT1 cell line = test: In vitro cell proliferation assay (MTT); type: cell-based; details: Homo sapiens, HuCCT-1, HuCCT1, 72 hr, read-out: EC50, anti-proliferative activity
Method in brief: as §2

HuH6 Clone 5 cell line = test: In vitro cell proliferation assay (MTT); type: cell-based; details: HUH-6-clone5, HuH6 Clone 5, 72 hr, EC50 ≧ 1 μM, read-out: EC50, anti-proliferative activity
Method in brief: as §2

HuH7 cell line = test: In vitro cell proliferation assay (MTT); type: cell-based; details: Homo sapiens, Huh-7, HuH7, 72 hr, read-out: EC50, anti-proliferative activity
Method in brief: as §2

MDA-MB-231 cell line = test: In vitro cell proliferation assay (MTT); type: cell-based; details: Homo sapiens, MDA-MB-231, 72 hr, EC50 ≧ 1 μM, read-out: EC50, anti-proliferative activity
Method in brief: as §2

A549 cell line = test: In vitro cell proliferation assay (MTT); type: cell-based; details: Homo sapiens, A549, 72 h, EC50 ≧ 1 μM, read-out: EC50, anti-proliferative activity
Method in brief: as §2

HeLa cell line = test: In vitro cell proliferation assay (MTT); type: cell-based; details: Homo sapiens, 72 hr, EC50 ≧ 1 μM, read-out: EC50, anti-proliferative activity
Method in brief: as §2

SMILES	inhibition at 0.1 µM (BRAF)	inhibition at 0.1 µM (EGFR (ErbB1))	inhibition at 0.1 µM (EGFR (ErbB1) T790M L858R)	inhibition at 0.1 µM (FGFR2)	inhibition at 0.1 µM (KDR (VEGFR2))	inhibition at 0.1 µM (PDGFRA (PDGFR alpha))	inhibition at 0.1 µM (SRC)	EC50 (HUVEC cells; EC50 ≧ 1 μM)	EC50 (HepG2 cell line; EC50 ≧ 1 μM)	EC50 (HuCCT1 cell line; EC50 ≧ 1 μM)	EC50 (HuH6 Clone 5 cell line)	EC50 (HuH7 cell line; EC50 ≧ 1 μM)	EC50 (MDA-MB-231 cell line)	EC50 (HUVEC cells; 100 nM < EC50 < 1 μM)	EC50 (HuCCT1 cell line; 100 nM < EC50 < 1 μM)	EC50 (HuH7 cell line; 100 nM < EC50 < 1 μM)	EC50 (A549 cell line)	EC50 (HeLa cell line)	EC50 (HepG2 cell line; 100 nM < EC50 < 1 μM)
CC(=O)c1cc2cc(C(=O)Nc3cc(NC(=O)c4cc(-n5cnc(C)c5)cc(C(F)(F)F)c4)ccc3C)cnc2[nH]1 [OR0723, 2-Acetyl-1H-pyrrolo[2,3-b]pyridine-5-carboxylic acid {2-methyl-5-[3-(4-methyl-imidazol-1-yl)-5-trifluoromethyl-benzoylamino]-phenyl}-amide]	< 50%	≥ 50%	< 50%	< 50%	< 50%	< 50%	< 50%	–	–	–	–	–	–	–	–	–	–	–	–
Cc1nc(Nc2ncc(C(=O)Nc3c(C)cccc3Cl)s2)cc(N2CCN(CCO)CC2)n1 [Dasatinib, reference compound]	–	–	–	–	–	–	–	≥ 1000 nM	≥ 1000 nM	≥ 1000 nM	–	–	–	–	–	–	–	–	–
COC(=O)c1cc2cc(C=Cc3cc(NC(=O)c4ccc(CN5CCC(N(C)C)C5)c(C(F)(F)F)c4)ccc3C)cnc2[nH]1 (centres unmarked) [OR0778, 5-(2-{5-[4-(3-Dimethylamino-pyrrolidin-1-ylmethyl)-3-trifluoromethyl-benzoylamino]-2-methyl-phenyl}-vinyl)-1H-pyrrolo[2,3-b]pyridine-2-carboxylic acid methyl ester]	< 50%	≥ 50%	–	< 50%	≥ 50%	≥ 50%	≥ 50%	≥ 1000 nM	≥ 1000 nM	≥ 1000 nM	≥ 1000 nM	≥ 1000 nM	≥ 1000 nM	–	–	–	–	–	–
COC(=O)c1cc2cc(CNC(=O)c3cc(NC(=O)c4ccc(CN5CCC(N(C)C)C5)c(C(F)(F)F)c4)ccc3C)cnc2[nH]1 (centres unmarked) [OR0726, 5-({5-[4-(3-Dimethylamino-pyrrolidin-1-ylmethyl)-3-trifluoromethyl-benzoylamino]-2-methyl-benzoylamino}-methyl)-1H-pyrrolo[2,3-b]pyridine-2-carboxylic acid methyl ester]	< 50%	< 50%	< 50%	< 50%	< 50%	< 50%	< 50%	–	–	–	–	–	–	–	–	–	–	–	–
CC(=O)c1cc2cc(CCc3cc(NC(=O)c4ccc(CN5CCN(C)CC5)cc4)ccc3C)cnc2[nH]1 [OR0799, N-{3-[2-(2-Acetyl-1H-pyrrolo[2,3-b]pyridin-5-yl)-ethyl]-4-methyl-phenyl}-4-(4-methyl-piperazin-1-ylmethyl)-benzamide]	≥ 50%	≥ 50%	–	< 50%	≥ 50%	≥ 50%	≥ 50%	–	≥ 1000 nM	–	≥ 1000 nM	–	–	100 to 1000 nM	100 to 1000 nM	100 to 1000 nM	–	–	–
COC(=O)c1cc2cc(CNC(=O)c3cc(NC(=O)c4ccc(CN5CCN(C)CC5)c(C(F)(F)F)c4)ccc3C)cnc2[nH]1 [OR0728, 5-({2-Methyl-5-[4-(4-methyl-piperazin-1-ylmethyl)-3-trifluoromethyl-benzoylamino]-benzoylamino}-methyl)-1H-pyrrolo[2,3-b]pyridine-2-carboxylic acid methyl ester]	< 50%	< 50%	< 50%	< 50%	< 50%	≥ 50%	< 50%	–	–	–	–	–	–	–	–	–	–	–	–
COC(=O)c1cc2cc(CNC(=O)c3cc(NC(=O)c4ccc(CN5CCN(C)CC5)cc4)ccc3C)cnc2[nH]1 [OR0730, 5-({2-Methyl-5-[4-(4-methyl-piperazin-1-ylmethyl)-benzoylamino]-benzoylamino}-methyl)-1H-pyrrolo[2,3-b]pyridine-2-carboxylic acid methyl ester]	< 50%	< 50%	< 50%	< 50%	< 50%	< 50%	< 50%	–	–	–	–	–	–	–	–	–	–	–	–
CC(=O)c1cc2cc(CCc3cc(NC(=O)Cc4cccc(C(F)(F)F)c4)ccc3C)cnc2[nH]1 [OR0966, N-{3-[2-(2-Acetyl-1H-pyrrolo[2,3-b]pyridin-5-yl)-ethyl]-4-methyl-phenyl}-2-(3-trifluoromethyl-phenyl)-acetamide]	≥ 50%	< 50%	–	< 50%	< 50%	< 50%	< 50%	≥ 1000 nM	–	–	–	–	≥ 1000 nM	–	–	–	≥ 1000 nM	≥ 1000 nM	100 to 1000 nM
COC(=O)c1cc2cc(CCc3cc(NC(=O)c4ccc(CN5CCN(C)CC5)cc4)ccc3C)cnc2[nH]1 [OR0834, 5-(2-{2-Methyl-5-[4-(4-methyl-piperazin-1-ylmethyl)-benzoylamino]-phenyl}-ethyl)-1H-pyrrolo[2,3-b]pyridine-2-carboxylic acid methyl ester]	< 50%	≥ 50%	–	< 50%	≥ 50%	≥ 50%	≥ 50%	≥ 1000 nM	≥ 1000 nM	–	–	≥ 1000 nM	–	–	–	–	–	–	–
CNC(=O)c1cc(Oc2ccc(NC(=O)Nc3ccc(Cl)c(C(F)(F)F)c3)cc2)ccn1 [Sorafenib, reference compound]	–	–	–	–	–	–	–	–	1000 to 3000 nM	1000 to 3000 nM	1000 to 3000 nM	1000 to 3000 nM	–	100 to 1000 nM	–	–	–	–	–
CC(=O)c1cc2cc(CCc3cc(NC(=O)c4cncc(C(F)(F)F)c4)ccc3C)cnc2[nH]1 [OR0800, N-{3-[2-(2-Acetyl-1H-pyrrolo[2,3-b]pyridin-5-yl)-ethyl]-4-methyl-phenyl}-5-trifluoromethyl-nicotinamide]	≥ 50%	< 50%	–	< 50%	≥ 50%	≥ 50%	≥ 50%	–	≥ 1000 nM	≥ 1000 nM	≥ 1000 nM	≥ 1000 nM	–	100 to 1000 nM	–	–	–	–	–
COC(=O)c1cc2cc(C=Nc3cc(NC(=O)c4ccc(CN5CCN(C)CC5)c(C(F)(F)F)c4)ccc3C)cnc2[nH]1 [OR1070, 5-({2-Methyl-5-[4-(4-methyl-piperazin-1-ylmethyl)-3-trifluoromethyl-benzoylamino]-phenylimino}-methyl)-1H-pyrrolo[2,3-b]pyridine-2-carboxylic acid methyl ester]	< 50%	≥ 50%	–	≥ 50%	≥ 50%	≥ 50%	≥ 50%	≥ 1000 nM	≥ 1000 nM	–	–	–	≥ 1000 nM	–	–	–	≥ 1000 nM	≥ 1000 nM	–
COC(=O)c1cc2cc(CSc3cccc(NC(=O)c4cccc(C(F)(F)F)c4)c3)cnc2[nH]1 [OR1066, 5-[3-(3-Trifluoromethyl-benzoylamino)-phenylsulfanylmethyl]-1H-pyrrolo[2,3-b]pyridine-2-carboxylic acid methyl ester]	< 50%	< 50%	–	< 50%	≥ 50%	≥ 50%	< 50%	≥ 1000 nM	≥ 1000 nM	–	–	–	≥ 1000 nM	–	–	–	≥ 1000 nM	≥ 1000 nM	–
CC(=O)c1cc2cc(C(=O)Nc3cc(NC(=O)c4ccc(CN5CCN(C)CC5)c(C(F)(F)F)c4)ccc3C)cnc2[nH]1 [OR0724, 2-Acetyl-1H-pyrrolo[2,3-b]pyridine-5-carboxylic acid {2-methyl-5-[4-(4-methyl-piperazin-1-ylmethyl)-3-trifluoromethyl-benzoylamino]-phenyl}-amide]	< 50%	≥ 50%	≥ 50%	< 50%	< 50%	< 50%	< 50%	–	–	–	–	–	–	–	–	–	–	–	–
